Results reported in ChEMBL document CHEMBL4732174, “Discovery of 6-(7-Nitro-2,1,3-benzoxadiazol-4-ylthio)hexanol Derivatives as Glutathione Transferase Inhibitors with Favorable Selectivity and Tolerated Toxicity” (J Med Chem, 2021).
pIC50: −log10 of the molar value.

Tests used:
L02 = assay: Cytotoxicity against human L02 cells assessed as reduction in cell viability incubated for 72 hrs by MTT assay; format: cell-based; conditions: L02, 72 h
[1] = Antiproliferative activity against […] B16 cells assessed as inhibition of cell proliferation incubated for 72 hrs by MTT assay; format: functional, cell-based; conditions: B16, 72 h
HOS = assay: Antiproliferative activity against human HOS cells assessed as inhibition of cell proliferation incubated for 72 hrs by MTT assay; format: functional, cell-based
[2] = target: Glutathione S-transferase P (Homo sapiens, UniProt P09211); assay: Inhibition of GSTP1-1 (unknown origin) using reduced GSH and CDNB as substrate incubated for 10 mins followed by substrate addition by microplate reader analysis
A549 = assay: Antiproliferative activity against human A549 cells assessed as inhibition of cell proliferation incubated for 72 hrs by MTT assay; format: functional, cell-based; conditions: A549, 72 h
143B [3] = assay: Antiproliferative activity against human 143B cells assessed as inhibition of cell proliferation incubated for 72 hrs by MTT assay; format: functional, cell-based
[4] = target: T1, Glutathione S-transferase Mu 2 (Homo sapiens, UniProt P28161); assay: Inhibition of GSTM2-2 (unknown origin) using reduced GSH and CDNB as substrate incubated for 10 mins followed by substrate addition by microplate reader analysis
T1 sequence (P28161 whole entry): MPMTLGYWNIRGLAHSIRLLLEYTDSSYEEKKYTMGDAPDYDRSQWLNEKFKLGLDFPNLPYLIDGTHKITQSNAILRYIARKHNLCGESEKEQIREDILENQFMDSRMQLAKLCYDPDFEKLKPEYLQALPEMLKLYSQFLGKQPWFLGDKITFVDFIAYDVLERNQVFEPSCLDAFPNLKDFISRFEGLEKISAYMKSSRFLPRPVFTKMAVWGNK

HUVEC = assay: Cytotoxicity against HUVEC assessed as reduction in cell viability incubated for 72 hrs by MTT assay; format: cell-based; conditions: Homo sapiens
[5] = Water solubility of the compound measured by UV-Visible spectral analysis; format: physicochemical; conditions: buffer
143B [6] = assay: Antitumor activity against human 143B cells xenografted in BALB/c nude mouse assessed as tumor growth inhibition at 5 mg/kg, po administered once daily for 28 consecutive days relative to control; format: functional; conditions: 672 h, time 28 day, read-out: TGI

Glutathione S-transferase P, sequence (P09211 whole entry): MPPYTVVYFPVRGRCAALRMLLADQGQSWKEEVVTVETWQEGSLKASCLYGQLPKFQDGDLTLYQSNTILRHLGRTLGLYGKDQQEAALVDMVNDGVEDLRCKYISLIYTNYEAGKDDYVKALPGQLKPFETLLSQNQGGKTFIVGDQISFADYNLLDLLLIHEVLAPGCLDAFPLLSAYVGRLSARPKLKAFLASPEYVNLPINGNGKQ

## O=C(CCC(=O)OCCCCCCSc1ccc([N+](=O)[O-])c2nonc12)Nc1ccccc1
L02
  pIC50: 5.19
[1]
  pIC50: 5.90
HOS
  pIC50: 5.67
[2]
  pIC50: 4.99
A549
  pIC50: 5.71
143B [3]
  pIC50: 5.41
[4]
  pIC50: 6.15
HUVEC
  pIC50: 5.60

## O=C(O)CCC(=O)OCCCCCCSc1ccc([N+](=O)[O-])c2nonc12
L02
  pIC50: 5.72
[1]
  pIC50: 5.44
HOS
  pIC50: 5.06
[2]
  pIC50: 6.28
A549
  pIC50: 5.44
143B [3]
  pIC50: 5.55
[4]
  pIC50: 6.80
HUVEC
  pIC50: 6.13

## O=C(CCC(=O)OCCCCCCSc1ccc([N+](=O)[O-])c2nonc12)Nc1ccc(Br)cc1
L02
  pIC50: 5.36
[1]
  pIC50: 5.58
HOS
  pIC50: 5.67
[2]
  pIC50: 5.29
A549
  pIC50: 5.48
143B [3]
  pIC50: 5.57
[4]
  pIC50: 4.49
HUVEC
  pIC50: 5.79

## O=C(CCC(=O)OCCCCCCSc1ccc([N+](=O)[O-])c2nonc12)Nc1ccc(C(F)(F)F)cc1
L02
  pIC50: 5.30
[1]
  pIC50: 5.95
HOS
  pIC50: 5.49
[2]
  pIC50: 5.30
A549
  pIC50: 5.40
143B [3]
  pIC50: 5.68
[4]
  pIC50: 7.05
HUVEC
  pIC50: 5.86

## O=C(CCC(=O)OCCCCCCSc1ccc([N+](=O)[O-])c2nonc12)Nc1ccc(F)c(Cl)c1
L02
  pIC50: 5.34
[1]
  pIC50: 5.38
HOS
  pIC50: 5.55
[2]
  pIC50: 5.01
A549
  pIC50: 5.49
143B [3]
  pIC50: 5.52
[4]
  pIC50: 6.33
HUVEC
  pIC50: 5.63

## CCN(CC)CCCNC(=O)CCC(=O)OCCCCCCSc1ccc([N+](=O)[O-])c2nonc12
L02
  pIC50: 5.17
[5]
  solubility: Soluble
[1]
  pIC50: 5.53
HOS
  pIC50: 5.04
[2]
  pIC50: 5.02
A549
  pIC50: 5.59
143B [3]
  pIC50: 5.46
[4]
  pIC50: 6.36
HUVEC
  pIC50: 5.53

## COc1ccc(NC(=O)CCC(=O)OCCCCCCSc2ccc([N+](=O)[O-])c3nonc23)cc1
L02
  pIC50: 5.09
[1]
  pIC50: 5.54
HOS
  pIC50: 5.74
[2]
  pIC50: 6.38
A549
  pIC50: 5.19
143B [3]
  pIC50: 5.51
[4]
  pIC50: 6.89
HUVEC
  pIC50: 5.80

## O=C(CCC(=O)OCCCCCCSc1ccc([N+](=O)[O-])c2nonc12)Nc1ccccc1F
L02
  pIC50: 5.37
[1]
  pIC50: 5.67
HOS
  pIC50: 5.63
[2]
  pIC50: 5.00
A549
  pIC50: 5.61
143B [3]
  pIC50: 5.52
[4]
  pIC50: 6.46
HUVEC
  pIC50: 6.08

## O=C(CCC(=O)OCCCCCCSc1ccc([N+](=O)[O-])c2nonc12)NCCN1CCCC1
L02
  pIC50: 5.18
[5]
  solubility: Soluble
[1]
  pIC50: 5.46
HOS
  pIC50: 5.48
[2]
  pIC50: 6.34
A549
  pIC50: 5.49
143B [3]
  pIC50: 5.25
[4]
  pIC50: 6.70
HUVEC
  pIC50: 5.22

## COc1ccc(NC(=O)CCC(=O)OCCCCCCSc2ccc([N+](=O)[O-])c3nonc23)cc1OC
L02
  pIC50: 5.39
[1]
  pIC50: 5.63
HOS
  pIC50: 5.86
[2]
  pIC50: 5.19
A549
  pIC50: 5.41
143B [3]
  pIC50: 5.56
[4]
  pIC50: 6.44
HUVEC
  pIC50: 6.06

## O=C(CCC(=O)N1CCCCC1)OCCCCCCSc1ccc([N+](=O)[O-])c2nonc12
L02
  pIC50: 5.40
[1]
  pIC50: 6.07
HOS
  pIC50: 5.75
[2]
  pIC50: 6.30
A549
  pIC50: 5.60
143B [3]
  pIC50: 5.72
[4]
  pIC50: 6.96
HUVEC
  pIC50: 5.70

## Cc1ccc(NC(=O)CCC(=O)OCCCCCCSc2ccc([N+](=O)[O-])c3nonc23)cc1
L02
  pIC50: 5.14
[1]
  pIC50: 5.71
HOS
  pIC50: 5.48
[2]
  pIC50: 5.17
A549
  pIC50: 5.28
143B [3]
  pIC50: 5.49
[4]
  pIC50: 6.41
HUVEC
  pIC50: 5.63

## O=C(CCC(=O)OCCCCCCSc1ccc([N+](=O)[O-])c2nonc12)NCCN1CCOCC1
L02
  pIC50: 5.52
[5]
  solubility: Soluble
[1]
  pIC50: 5.74
HOS
  pIC50: 5.74
[2]
  pIC50: 4.46
A549
  pIC50: 5.67
143B [3]
  pIC50: 5.55
[4]
  pIC50: 7.00
HUVEC
  pIC50: 5.97

## Cc1ccccc1NC(=O)CCC(=O)OCCCCCCSc1ccc([N+](=O)[O-])c2nonc12
L02
  pIC50: 5.02
[1]
  pIC50: 5.19
HOS
  pIC50: 5.40
[2]
  pIC50: 5.39
A549
  pIC50: 5.38
143B [3]
  pIC50: 5.33
[4]
  pIC50: 6.36
HUVEC
  pIC50: 5.85

## O=C(CCC(=O)N1CCOCC1)OCCCCCCSc1ccc([N+](=O)[O-])c2nonc12
L02
  pIC50: 5.49
[1]
  pIC50: 6.09
HOS
  pIC50: 6.00
[2]
  pIC50: 6.48
A549
  pIC50: 5.78
143B [3]
  pIC50: 5.82
[4]
  pIC50: 6.77
HUVEC
  pIC50: 5.27

## CN(C)CCNC(=O)CCC(=O)OCCCCCCSc1ccc([N+](=O)[O-])c2nonc12
L02
  pIC50: 5.22
[5]
  solubility: Soluble
[1]
  pIC50: 5.94
HOS
  pIC50: 5.30
[2]
  pIC50: 6.27
A549
  pIC50: 5.26
143B [3]
  pIC50: 5.66
[4]
  pIC50: 6.80
HUVEC
  pIC50: 5.67

## O=[N+]([O-])c1ccc(SCCCCCCO)c2nonc12
[1]
  pIC50: 5.87
HOS
  pIC50: 5.91
A549
  pIC50: 5.54
143B [3]
  pIC50: 5.39
[4]
  pIC50: 7.70
143B [6]
  inhibition in vivo at 5 mg/kg: 38.6%

## COc1ccccc1NC(=O)CCC(=O)OCCCCCCSc1ccc([N+](=O)[O-])c2nonc12
L02
  pIC50: 5.35
[1]
  pIC50: 5.86
HOS
  pIC50: 5.55
[2]
  pIC50: 5.39
A549
  pIC50: 5.73
143B [3]
  pIC50: 5.67
[4]
  pIC50: 6.55
HUVEC
  pIC50: 5.79

## O=C(CCC(=O)OCCCCCCSc1ccc([N+](=O)[O-])c2nonc12)Nc1cccc(Cl)c1
L02
  pIC50: 5.16
[1]
  pIC50: 5.51
HOS
  pIC50: 5.72
[2]
  pIC50: 4.54
A549
  pIC50: 5.28
143B [3]
  pIC50: 5.54
[4]
  pIC50: 5.96
HUVEC
  pIC50: 5.96

## O=C(CCC(=O)OCCCCCCSc1ccc([N+](=O)[O-])c2nonc12)Nc1ccc(F)cc1
L02
  pIC50: 5.19
[1]
  pIC50: 5.69
HOS
  pIC50: 5.68
[2]
  pIC50: 5.07
A549
  pIC50: 5.20
143B [3]
  pIC50: 5.60
[4]
  pIC50: 6.49
HUVEC
  pIC50: 5.76

## O=C(CCC(=O)OCCCCCCSc1ccc([N+](=O)[O-])c2nonc12)Nc1ccccc1Cl
L02
  pIC50: 5.23
[1]
  pIC50: 5.62
[2]
  pIC50: 4.81
A549
  pIC50: 5.56
143B [3]
  pIC50: 5.61
[4]
  pIC50: 6.48
HUVEC
  pIC50: 5.53
